# Measurements: US20170080049A1, “MEDICINE AGAINST GROWTH FAILURE INDUCED BY ADMINISTRATION OF STEROID” (DAIICHI SANKYO COMPANY, LIMITED, priority 2014, published 2017)
# Positions of bridges follow the written chain, without caps; N, C: chain ends. No end group written: not given here.
# Key:
# NPR-B = biological target: T1, NPR-B (Homo sapiens, UniProt P20594); details: Furuya et al. 1992; US 2010-305031; cited from earlier work
# T1 sequence (P20594 23-1047): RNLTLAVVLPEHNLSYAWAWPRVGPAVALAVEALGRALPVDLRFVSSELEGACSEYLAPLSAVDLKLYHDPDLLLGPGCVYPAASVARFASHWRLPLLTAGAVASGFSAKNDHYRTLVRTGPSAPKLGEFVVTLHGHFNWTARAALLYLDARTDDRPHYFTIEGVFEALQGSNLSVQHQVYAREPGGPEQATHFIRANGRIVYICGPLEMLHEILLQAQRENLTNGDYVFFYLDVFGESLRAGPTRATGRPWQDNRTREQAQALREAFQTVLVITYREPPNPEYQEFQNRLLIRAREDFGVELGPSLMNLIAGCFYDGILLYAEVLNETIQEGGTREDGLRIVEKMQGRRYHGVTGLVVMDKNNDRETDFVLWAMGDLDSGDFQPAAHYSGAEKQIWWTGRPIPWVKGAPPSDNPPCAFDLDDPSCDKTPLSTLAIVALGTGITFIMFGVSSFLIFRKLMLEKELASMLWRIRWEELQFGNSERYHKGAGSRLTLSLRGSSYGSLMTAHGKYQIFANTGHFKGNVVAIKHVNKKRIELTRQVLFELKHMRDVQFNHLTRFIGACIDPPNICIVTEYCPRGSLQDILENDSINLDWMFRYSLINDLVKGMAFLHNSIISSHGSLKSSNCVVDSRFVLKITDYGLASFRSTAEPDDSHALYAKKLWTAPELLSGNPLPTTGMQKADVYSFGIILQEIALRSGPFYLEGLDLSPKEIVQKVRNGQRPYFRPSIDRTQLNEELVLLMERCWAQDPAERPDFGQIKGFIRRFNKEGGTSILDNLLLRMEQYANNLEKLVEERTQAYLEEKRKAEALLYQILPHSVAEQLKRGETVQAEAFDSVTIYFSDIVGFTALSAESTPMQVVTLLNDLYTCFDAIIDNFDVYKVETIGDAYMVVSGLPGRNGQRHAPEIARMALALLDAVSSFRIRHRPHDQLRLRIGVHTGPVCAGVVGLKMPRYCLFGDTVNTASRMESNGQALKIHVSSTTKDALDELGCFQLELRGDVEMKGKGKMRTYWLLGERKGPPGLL
# normal mice = details: continuous intravenous administration, normal mice (Non Patent Literature 9, 10); cited from earlier work
# [1] = system: dexamethasone-induced rat growth failure model; assay: Combined administration study of human-type CNP-53 or various CNP derivatives in dexamethasone-induced rat growth failure model (Example 3); format: in vivo
# Description: Osmotic pumps (MINI-OSMOTIC PUMP Model 2004, available from DURECT CORPORATION, flow rate: 0.25 μL/hr, for 28 days) were charged with 0.67 mg/mL solution of dexamethasone (dexamethasone injection “KS”, available from Kyoritsuseiyaku Corporation) and one osmotic pump was embedded in the hypoderm of the back of each 5-week-old male Crlj:WI (Wistar) rat (5 animals/group, Groups 2 to 6, a total of 25 animals). At the same time, one osmotic pump (the same as above) charged with a 15 mg/mL solution of CNP derivative (A) in Group 3, human-type CNP-53 in Group 4, CNP derivative (B) in Group 5 and CNP derivative (C) in Group 6 was embedded in the hypoderm of the back simultaneously. No substance was administered to the normal control group (Group 1, 5 animals). Then the animals were fed for 28 days, and transitions of the body weight, the body length and the tail length were measured. On the final day, the blood was collected from the abdominal aorta and the animals were caused to die under isoflurane anesthesia, and plasma was separated from the collected blood and the cholesterol concentration was determined by using a “LabAssay (trademark) cholesterol” (available from Wako Pure Chemical Industries, Ltd.). After collecting the blood and causing the animals to die, the right femur and thymus were extracted, and the length of the right femur and the weight of the thymus were measured.
# [2] = system: rat growth failure induced by dexamethasone; assay: Action comparing study between CNP derivative (A) and human growth hormone on rat growth failure induced by dexamethasone (Example 6); format: in vivo
# Description: Osmotic pumps (MINI-OSMOTIC PUMP Model 2004, available from DURECT CORPORATION, flow rate: 0.25 μL/hr, for 28 days) were charged with a 0.67 mg/mL solution of dexamethasone (dexamethasone injection “KS”, available from Kyoritsuseiyaku Corporation), and one osmotic pump was embedded in the hypoderm of the back of each 4-week-old male Crlj:WI (Wistar) rat (5 animals/group, Group 2 to Group 4, total of 15 animals). For Group 3, a 1 mg/mL solution of CNP derivative (A) (medium: 0.03 mol/L acetate buffer (pH 4.0)/1% benzyl alcohol/10% sucrose), and for Group 4, a 1 mg/mL solution of human-type growth hormone preparation (somatropin BS subcutaneous injection 10 mg “SANDOZ”) diluted with a phosphate buffer was administered to the hypoderm of the back of five rats, respectively, in a volume of 2 mL/kg once a day for 28 days. No substance was administered to the normal control group (5 animals, Group 1). On the final day, after measuring the body weight, the body length and the tail length, the blood was collected from the abdominal aorta and the animal was caused to die under isoflurane anesthesia, the left femur was extracted and the bone length was measured, and then a histopathological specimen of the epiphyseal region was prepared.
# [3] = combined with dexamethasone, 28 days
# [4] = dexamethasone 0.67 mg/mL pump alone or combined with 15 mg/mL pump of the CNP peptide, continuous s.c. 28 days, 5-week-old male Wistar rat, n=5
# [5] = dexamethasone 0.67 mg/mL pump alone or with CNP derivative (A) or human-type growth hormone 1 mg/mL, 2 mL/kg s.c. once a day 28 days, n=4 or 5
substance,measurement,setting,value
CNP6-22: peptide consisting of only the ring structure (amino acid Nos. 6 to 22 of SEQ ID NO: 1) (CFGLKLDRIGSMSGLGC; disulfide 1-17 (inferred)),NPR-B agonist activity compared with hCNP-22 (in words),NPR-B,almost the same NPR-B agonist activity as that of hCNP-22
"CNP-22: human-derived CNP-22 consisting of 22 amino acids, GLSKGCFGLK LDRIGSMSGL GC (GLSKGCFGLKLDRIGSMSGLGC)",elongation of bone (in words),normal mice,promoted
DLRVDTKSRAAWARLLQEHPNARKYKGANKKGLSKGCFGLKLDRIGSMSGLGC (disulfide 37-53) [human-type CNP-53],plasma cholesterol concentration and thymus weight vs single administration group of dexamethasone (in words),[1]; [3],a clear difference was not observed
same,Plasma cholesterol concentration,[1]; [4],62.1 ± 2.2 ^NS mg/dL
same,thymus body weight ratio,[1]; [4],[0.11 ± 0.01% ^NS]
same,thymus weight at dissection,[1]; [4],0.33 ± 0.03 g
"human-type growth hormone: human-type growth hormone preparation, existing therapeutic drug for dwarfism",elongation of the body length and the tail length vs dexamethasone-only administration group (in words),[2]; [3],no significant difference
same,left femur length on the final day vs dexamethasone-only administration group (in words),[2]; [3],No significant difference
same,Body weight at dissection,"[2]; dexamethasone 0.67 mg/mL pump 28 days alone or with CNP derivative (A) or human-type growth hormone 1 mg/mL, 2 mL/kg s.c. once a day 28 days, 4-week-old male Wistar rat, mean ± SD, n=4 or 5",255 ± 7 g
same,Body length at dissection,[2]; [5],199 ± 5 mm
same,"Body length, variation from pre-administration value (Δ value)",[2]; [5],(44.8 ± 3.7) mm
same,"Body weight, variation from pre-administration value (Δ value)",[2]; [5],(149 ± 3) g
same,Left femur length at dissection,[2]; [5],31.7 ± 0.6 mm
same,Tail length at dissection,[2]; [5],199 ± 3 mm
same,"Tail length, variation from pre-administration value (Δ value)",[2]; [5],(66.8 ± 5.0) mm
same,growth plate cartilage layer of the epiphyseal region of the left femur (in words),"[2]; histology, toluidine blue (FIG. 5), tendency, combinations compared with dexamethasone only",swelling
